{"source": "ChEMBL document CHEMBL4184089", "about": "(Bioorg Med Chem Lett, 2018)", "key": {"[1]": {"molecular_target": "Sphingosine 1-phosphate receptor 1 (Homo sapiens, UniProt P21453)", "sequence (P21453 whole entry)": "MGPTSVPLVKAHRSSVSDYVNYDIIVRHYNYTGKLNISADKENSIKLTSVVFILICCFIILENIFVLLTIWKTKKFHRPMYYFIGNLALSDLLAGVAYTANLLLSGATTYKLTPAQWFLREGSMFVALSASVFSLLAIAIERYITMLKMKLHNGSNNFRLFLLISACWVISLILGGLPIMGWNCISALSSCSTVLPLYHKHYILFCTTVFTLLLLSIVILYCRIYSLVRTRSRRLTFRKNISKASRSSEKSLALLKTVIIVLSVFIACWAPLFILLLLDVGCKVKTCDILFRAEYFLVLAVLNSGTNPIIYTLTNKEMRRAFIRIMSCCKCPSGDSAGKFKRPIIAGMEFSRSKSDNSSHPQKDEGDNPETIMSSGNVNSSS", "experiment": "Displacement of [32P]S1P from recombinant human S1PR1 expressed in CHOK1 cell membranes pretreated for 30 mins followed by [32P]S1P addition measured after 60 mins by scintillation counting method"}, "[2]": {"molecular_target": "Sphingosine 1-phosphate receptor 3 (Homo sapiens, UniProt Q99500)", "sequence (Q99500 whole entry)": "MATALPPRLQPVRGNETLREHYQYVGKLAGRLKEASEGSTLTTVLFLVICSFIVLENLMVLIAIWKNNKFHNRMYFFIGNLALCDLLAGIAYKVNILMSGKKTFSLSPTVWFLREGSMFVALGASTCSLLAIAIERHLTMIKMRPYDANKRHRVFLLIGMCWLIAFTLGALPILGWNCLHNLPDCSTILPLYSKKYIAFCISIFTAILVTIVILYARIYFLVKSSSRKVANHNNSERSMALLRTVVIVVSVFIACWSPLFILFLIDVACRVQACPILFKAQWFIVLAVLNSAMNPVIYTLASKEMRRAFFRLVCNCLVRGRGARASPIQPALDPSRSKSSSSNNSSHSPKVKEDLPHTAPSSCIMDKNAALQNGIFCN", "experiment": "Displacement of [32P]S1P from recombinant human S1PR3 expressed in Chem1 cell membranes co-expressing Galpha15 pretreated for 30 mins followed by [32P]S1P addition measured after 60 mins by scintillation counting method"}, "[3]": {"molecular_target": "Sphingosine 1-phosphate receptor 2 (Homo sapiens, UniProt O95136)", "sequence (O95136 whole entry)": "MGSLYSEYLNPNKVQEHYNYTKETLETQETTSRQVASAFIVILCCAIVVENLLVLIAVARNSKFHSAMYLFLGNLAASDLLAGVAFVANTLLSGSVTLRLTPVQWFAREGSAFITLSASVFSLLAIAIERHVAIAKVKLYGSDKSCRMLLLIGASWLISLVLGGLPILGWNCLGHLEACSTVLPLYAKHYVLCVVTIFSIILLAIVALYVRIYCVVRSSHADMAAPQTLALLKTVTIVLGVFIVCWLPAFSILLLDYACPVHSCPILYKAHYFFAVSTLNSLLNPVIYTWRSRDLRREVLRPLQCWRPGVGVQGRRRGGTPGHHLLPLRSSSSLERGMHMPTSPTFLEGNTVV", "experiment": "Displacement of [32P]S1P from recombinant human S1PR2 expressed in Chem1 cell membranes co-expressing Galpha15 pretreated for 30 mins followed by [32P]S1P addition measured after 60 mins by scintillation counting method"}, "[4]": {"molecular_target": "Sphingosine 1-phosphate receptor 5 (Homo sapiens, UniProt Q9H228)", "sequence (Q9H228 whole entry)": "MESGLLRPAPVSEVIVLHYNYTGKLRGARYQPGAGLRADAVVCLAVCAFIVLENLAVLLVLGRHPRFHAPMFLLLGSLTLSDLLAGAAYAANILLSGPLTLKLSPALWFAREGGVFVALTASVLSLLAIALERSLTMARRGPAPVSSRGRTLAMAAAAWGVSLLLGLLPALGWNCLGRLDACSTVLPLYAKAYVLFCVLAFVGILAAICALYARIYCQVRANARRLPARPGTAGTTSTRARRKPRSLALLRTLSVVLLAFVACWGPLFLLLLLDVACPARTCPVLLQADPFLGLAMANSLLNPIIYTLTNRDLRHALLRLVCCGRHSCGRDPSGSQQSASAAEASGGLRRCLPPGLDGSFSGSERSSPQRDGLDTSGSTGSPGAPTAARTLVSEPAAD", "experiment": "Displacement of [32P]S1P from recombinant human S1PR5 expressed in cell membranes pretreated for 30 mins followed by [32P]S1P addition measured after 60 mins by scintillation counting method"}, "[5]": {"molecular_target": "T1, Sphingosine 1-phosphate receptor 4 (Homo sapiens, UniProt O95977)", "T1 sequence (O95977 whole entry)": "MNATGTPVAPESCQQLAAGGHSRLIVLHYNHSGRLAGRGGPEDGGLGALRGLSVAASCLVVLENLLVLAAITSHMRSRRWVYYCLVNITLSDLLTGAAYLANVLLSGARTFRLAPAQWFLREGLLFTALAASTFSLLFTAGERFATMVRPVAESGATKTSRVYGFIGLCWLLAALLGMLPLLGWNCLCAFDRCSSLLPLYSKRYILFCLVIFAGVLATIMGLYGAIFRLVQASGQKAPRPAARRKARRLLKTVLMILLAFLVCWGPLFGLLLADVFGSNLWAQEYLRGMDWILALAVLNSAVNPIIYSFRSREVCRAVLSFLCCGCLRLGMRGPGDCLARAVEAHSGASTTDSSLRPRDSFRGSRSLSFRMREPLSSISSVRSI", "experiment": "Displacement of [32P]S1P from recombinant human S1PR4 expressed in cell membranes pretreated for 30 mins followed by [32P]S1P addition measured after 60 mins by scintillation counting method"}}, "data": [{"smiles": "Cc1nn(C)c2nc(NNC(=O)Nc3cc(Cl)nc(Cl)c3)cc(C(C)C)c12", "values": [{"measurement": "IC50", "setting": "[1]", "value": "> 1000", "unit": "nM"}, {"measurement": "IC50", "setting": "[2]", "value": "> 1000", "unit": "nM"}]}, {"smiles": "Cc1nn(C)c2nc(NNC(=O)Nc3cc(Cl)n4ccnc4c3)cc(C(C)C)c12", "values": [{"measurement": "IC50", "setting": "[3]", "value": "> 1000", "unit": "nM"}]}, {"smiles": "Cc1nn(C)c2nc(NNC(=O)Nc3cc(Cl)nc(OC(C)C)c3)cc(C(C)C)c12", "values": [{"measurement": "IC50", "setting": "[1]", "value": "> 1000", "unit": "nM"}, {"measurement": "IC50", "setting": "[4]", "value": "> 1000", "unit": "nM"}, {"measurement": "IC50", "setting": "[3]", "value": 29.1, "unit": "nM"}, {"measurement": "IC50", "setting": "[5]", "value": "> 1000", "unit": "nM"}, {"measurement": "IC50", "setting": "[2]", "value": "> 1000", "unit": "nM"}]}, {"smiles": "COc1cc(NC(=O)NC(=O)c2cc(C(F)(F)F)c3c(C)nn(C)c3n2)cc(Cl)n1", "values": [{"measurement": "IC50", "setting": "[3]", "value": "> 1000", "unit": "nM"}]}, {"smiles": "COc1cc(NC(=O)NC(=O)c2cc(C(C)C)c3c(n2)c(C)nn3C)cc(Cl)n1", "values": [{"measurement": "IC50", "setting": "[3]", "value": "> 1000", "unit": "nM"}]}, {"smiles": "COc1cc(-c2nnc(-c3cc(C(C)C)c4c(C)nn(C)c4n3)[nH]2)cc(Cl)n1", "values": [{"measurement": "IC50", "setting": "[3]", "value": "> 1000", "unit": "nM"}]}, {"smiles": "Cc1n[nH]c2nc(C(=O)NC(=O)Nc3cc(Cl)nc(Cl)c3)cc(C(F)(F)F)c12", "values": [{"measurement": "IC50", "setting": "[3]", "value": "> 1000", "unit": "nM"}]}, {"smiles": "Cc1nn(C)c2nc(C(=O)NC(=O)Nc3cc(Cl)nc(Cl)c3)cc(C(F)(F)F)c12", "values": [{"measurement": "IC50", "setting": "[3]", "value": "> 1000", "unit": "nM"}]}, {"smiles": "COc1cc(NC(=O)NC(=O)c2cc(C(F)(F)F)c3c(C)n[nH]c3n2)cc(Cl)n1", "values": [{"measurement": "IC50", "setting": "[3]", "value": "> 1000", "unit": "nM"}]}, {"smiles": "Cc1nn(C)c2nc(NNC(=O)Nc3cc(Cl)nc(OCC4CC4)c3)cc(C(C)C)c12", "values": [{"measurement": "IC50", "setting": "[1]", "value": "> 1000", "unit": "nM"}, {"measurement": "IC50", "setting": "[4]", "value": "> 1000", "unit": "nM"}, {"measurement": "IC50", "setting": "[3]", "value": 56.5, "unit": "nM"}, {"measurement": "IC50", "setting": "[5]", "value": "> 1000", "unit": "nM"}, {"measurement": "IC50", "setting": "[2]", "value": "> 1000", "unit": "nM"}]}, {"smiles": "Cc1nn(C)c2nc(NNC(=O)Nc3nc4c(Cl)nc(Cl)cc4[nH]3)cc(C(C)C)c12", "values": [{"measurement": "IC50", "setting": "[3]", "value": "> 1000", "unit": "nM"}]}, {"smiles": "COc1cc(-c2nc(-c3cc(C(C)C)c4c(C)nn(C)c4n3)no2)cc(Cl)n1", "values": [{"measurement": "IC50", "setting": "[3]", "value": "> 1000", "unit": "nM"}]}]}
